# Results: ChEMBL document CHEMBL5335850, “Isolation of Paraphaeoketones: A Plausible Biosynthetic Explanation for Paraphaeolactones via a Benzilic Acid Rearrangement Rather than a Favorskii Rearrangement” (J Nat Prod, 2024)
# Active and inactive are the calls of the source. No cut-off for these calls is given here.
# Tests used:
# Bipolaris oryzae = assay: Antifungal activity against Bipolaris oryzae assessed as inhibition of fungal growth incubated for 5 days by paper disk method; format: functional, organism-based; conditions: time 5.0 day
# COLO 201 = assay: Cytotoxicity against human COLO201 cells assessed as inhibition of cell proliferation incubated for 24 hrs by WST-1 reagent based titer-plate reader assay; format: functional
SMILES,Activity (Bipolaris oryzae),Activity (COLO 201)
C[C@@H]1C=C[C@@]2(O)[C@H](O)[C@@H]1C(=O)[C@]1(O)O[C@H]3C(=O)[C@@H]4[C@H](C)C=C[C@](O)([C@H]3[C@H]21)[C@@H]4O,inactive,inactive
CC1C=CC2(O)CC(=O)C(=O)C1C2O (stereo unspecified),inactive,inactive
CC1C2CC3(O)OC(C)(O2)C(=O)C1C3O (stereo unspecified),inactive,inactive
